# Patent publication US20230012570A1, “BICYCLIC COMPOUND USED AS SELECTIVE ANDROGEN RECEPTOR MODULATOR” (MEDSHINE DISCOVERY INC., priority 2019, published 2023)
# pIC50: −log10 of the molar value.
# Experiments:
# Type in all cases: in vitro ADME
# CYP1A2 = target: T1, CYP1A2 (Homo sapiens, UniProt P05177); assay: Human liver microsomal CYP inhibition experiment, CYP1A2
# T1 construct: Mixed human liver microsomes (HLM) were purchased from Corning Inc; tissue Corning Inc. or XenoTech, LLC. or other suppliers; host or cells: pooled human liver microsomes
# T1 sequence (P05177 1-516): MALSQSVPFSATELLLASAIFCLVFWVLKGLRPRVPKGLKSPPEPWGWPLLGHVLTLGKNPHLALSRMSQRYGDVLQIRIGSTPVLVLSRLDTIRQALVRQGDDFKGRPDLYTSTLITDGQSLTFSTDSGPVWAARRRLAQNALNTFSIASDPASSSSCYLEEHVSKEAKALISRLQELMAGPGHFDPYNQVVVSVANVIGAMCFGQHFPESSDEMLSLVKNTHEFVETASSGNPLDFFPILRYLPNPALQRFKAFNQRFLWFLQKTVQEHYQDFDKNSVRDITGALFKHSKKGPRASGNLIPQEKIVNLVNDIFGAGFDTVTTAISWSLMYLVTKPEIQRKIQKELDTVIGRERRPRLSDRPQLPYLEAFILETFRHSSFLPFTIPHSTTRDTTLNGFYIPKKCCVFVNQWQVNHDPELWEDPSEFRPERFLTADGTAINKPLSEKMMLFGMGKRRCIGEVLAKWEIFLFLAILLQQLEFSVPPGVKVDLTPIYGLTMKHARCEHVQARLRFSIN
# Method: (§1) Experiment Embodiment 4: Human Liver Microsomal CYP Inhibition Experiment
# (§2) The inhibitory effects of the test compound 3A and VK5211 on the activities of human liver microsomal cytochrome P450 isozymes (CYP1A2, CYP2C9, CYP2C19, CYP2D6 and CYP3A4) were determined.
# (§3) Mixed human liver microsomes (HLM) were purchased from Corning Inc. (Steuben, New York, USA) or XenoTech, LLC. (Lenexa, Kans., USA) or other suppliers, and were stored at a temperature below −60° C. before use.
# (§4) First, the test compound (10.0 mM) was gradient diluted to prepare working solution (100×final concentration), and the concentrations of the working solution were: 5.00, 1.50, 0.500, 0.150, 0.0500, 0.0150, 0.00500 mM, and a working solution of each positive inhibitor of P450 isozymes (CYP1A2, CYP2C9, CYP2C19, CYP2D6, and CYP3A4) and a specific substrate mixture thereof (5 in 1) were prepared at the same time; human liver microsomes stored in a refrigerator at a temperature lower than −60° C. were put on ice to thaw, and when all the human liver microsomes were dissolved, the microsomes were diluted with potassium phosphate buffer (PB) to prepare a working solution of a certain concentration (0.253 mg/mL). […] The concentration of metabolites produced by the probe substrate in the sample was determined by liquid chromatography-tandem mass spectrometry (LC-MS/MS) method. […]
# CYP2C9 = target: T2, CYP2C9 (Homo sapiens, UniProt P11712); assay: Human liver microsomal CYP inhibition experiment, CYP2C9
# T2 construct: Mixed human liver microsomes (HLM) were purchased from Corning Inc; tissue Corning Inc. or XenoTech, LLC. or other suppliers; host or cells: pooled human liver microsomes
# Method: as §1, §2, §3, §4
# CYP2C19 = target: T3, CYP2C19 (Homo sapiens, UniProt P33261); assay: Human liver microsomal CYP inhibition experiment, CYP2C19
# T3 construct: Mixed human liver microsomes (HLM) were purchased from Corning Inc; tissue Corning Inc. or XenoTech, LLC. or other suppliers; host or cells: pooled human liver microsomes
# Method: as §1, §2, §3, §4
# CYP2D6 = target: T4, CYP2D6 (Homo sapiens, UniProt P10635); assay: Human liver microsomal CYP inhibition experiment, CYP2D6
# T4 construct: Mixed human liver microsomes (HLM) were purchased from Corning Inc; tissue Corning Inc. or XenoTech, LLC. or other suppliers; host or cells: pooled human liver microsomes
# Method: as §1, §2, §3, §4
# CYP3A4 = target: T5, CYP3A4 (Homo sapiens, UniProt P08684); assay: Human liver microsomal CYP inhibition experiment, CYP3A4
# T5 construct: Mixed human liver microsomes (HLM) were purchased from Corning Inc; tissue Corning Inc. or XenoTech, LLC. or other suppliers; host or cells: pooled human liver microsomes
# Method: as §1, §2, §3, §4
# T2 sequence (P11712 whole entry): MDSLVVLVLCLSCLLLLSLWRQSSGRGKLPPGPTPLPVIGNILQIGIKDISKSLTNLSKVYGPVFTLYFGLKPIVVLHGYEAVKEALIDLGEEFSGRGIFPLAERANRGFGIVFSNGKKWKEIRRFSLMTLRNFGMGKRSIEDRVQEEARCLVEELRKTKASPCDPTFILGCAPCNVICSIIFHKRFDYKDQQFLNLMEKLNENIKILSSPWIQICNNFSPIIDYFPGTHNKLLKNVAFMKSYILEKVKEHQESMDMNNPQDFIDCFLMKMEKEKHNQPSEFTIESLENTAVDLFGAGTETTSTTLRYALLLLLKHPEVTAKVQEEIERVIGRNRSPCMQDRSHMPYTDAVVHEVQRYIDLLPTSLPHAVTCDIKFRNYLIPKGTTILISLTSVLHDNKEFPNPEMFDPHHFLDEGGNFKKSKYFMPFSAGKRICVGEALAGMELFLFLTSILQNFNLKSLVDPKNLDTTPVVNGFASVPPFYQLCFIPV
# T4 sequence (P10635 whole entry): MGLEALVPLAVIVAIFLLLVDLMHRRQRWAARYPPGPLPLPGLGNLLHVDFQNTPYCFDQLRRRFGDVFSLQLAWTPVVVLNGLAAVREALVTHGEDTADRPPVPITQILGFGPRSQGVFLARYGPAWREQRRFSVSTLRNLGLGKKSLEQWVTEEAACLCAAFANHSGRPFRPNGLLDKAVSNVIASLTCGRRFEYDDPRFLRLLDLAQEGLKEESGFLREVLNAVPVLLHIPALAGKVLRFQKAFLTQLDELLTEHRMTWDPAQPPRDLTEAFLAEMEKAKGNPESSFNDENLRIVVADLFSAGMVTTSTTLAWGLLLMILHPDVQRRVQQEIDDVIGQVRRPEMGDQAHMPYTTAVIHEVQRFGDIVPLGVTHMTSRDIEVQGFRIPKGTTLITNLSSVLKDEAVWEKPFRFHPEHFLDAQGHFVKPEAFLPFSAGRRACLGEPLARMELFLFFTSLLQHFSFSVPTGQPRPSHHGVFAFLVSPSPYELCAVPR
# T3 sequence (P33261 whole entry): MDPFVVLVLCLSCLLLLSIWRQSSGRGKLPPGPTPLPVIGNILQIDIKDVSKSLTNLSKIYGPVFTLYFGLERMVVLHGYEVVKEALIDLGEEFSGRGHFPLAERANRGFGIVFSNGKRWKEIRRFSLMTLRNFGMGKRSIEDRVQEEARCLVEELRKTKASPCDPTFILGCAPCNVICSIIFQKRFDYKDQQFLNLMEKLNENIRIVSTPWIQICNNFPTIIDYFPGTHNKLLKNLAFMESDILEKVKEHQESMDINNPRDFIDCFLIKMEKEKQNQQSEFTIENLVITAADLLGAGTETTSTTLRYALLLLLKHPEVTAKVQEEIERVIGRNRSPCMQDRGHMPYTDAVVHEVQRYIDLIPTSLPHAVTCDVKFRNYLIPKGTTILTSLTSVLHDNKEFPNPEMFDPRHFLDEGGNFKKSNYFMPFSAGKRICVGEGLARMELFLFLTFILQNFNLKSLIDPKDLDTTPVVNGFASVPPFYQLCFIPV
# T5 sequence (P08684 whole entry): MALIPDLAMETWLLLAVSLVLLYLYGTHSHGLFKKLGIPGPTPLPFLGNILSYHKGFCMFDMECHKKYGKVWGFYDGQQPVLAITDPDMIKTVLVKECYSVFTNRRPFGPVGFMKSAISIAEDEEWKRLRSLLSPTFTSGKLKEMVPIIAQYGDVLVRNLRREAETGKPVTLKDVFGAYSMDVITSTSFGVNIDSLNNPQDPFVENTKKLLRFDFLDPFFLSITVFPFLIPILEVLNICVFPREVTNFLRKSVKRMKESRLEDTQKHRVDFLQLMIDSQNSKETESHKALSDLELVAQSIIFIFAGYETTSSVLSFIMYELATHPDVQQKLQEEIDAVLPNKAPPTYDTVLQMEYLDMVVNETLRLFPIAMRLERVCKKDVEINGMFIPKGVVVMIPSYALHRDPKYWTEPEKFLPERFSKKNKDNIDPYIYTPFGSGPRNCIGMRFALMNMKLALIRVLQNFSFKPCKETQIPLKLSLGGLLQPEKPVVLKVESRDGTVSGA
smiles,measurement,setting,value
"N#Cc1ccc(N2CCC[C@@H]2[C@@H](O)C(F)(F)F)cc1C(F)(F)F [VK5211, reference compound]",pIC50,CYP1A2,5.35
same,pIC50,CYP2C9,5.23
same,pIC50,CYP2C19,5.37
same,pIC50,CYP2D6,5.12
same,pIC50,CYP3A4,4.35
